Results published in PubChem BioAssay AID326 (DTP/NCI, 2004).
Where “and” joins values, the source holds several entries; their conditions need not be identical. Equal values may be shown once. Inconclusive results and toxic doses are left out. Rule for the calls: active = survival T/C of 150% or more; inactive = T/C below 125% in these data. Numbered stars: 1 amine (or outer) side, 2 acyl side, 3 side chain; on linkers, the order of the positions; unused ones are H or OH. Bridge positions count the residues as written; N and C are the ends. Square brackets hold non-standard residues; d marks the D form. Peptide text beside a SMILES is read from it. I, II: the chains in the order shown. Actinocin(9to1) = Cc1c2oc3c(C)ccc(C(=O)[*:1])c3nc-2c(C(=O)[*:2])c(N)c1=O; aThr = C[C@H](O)[C@H](N)C(=O)O; NMeV = CN[C@H](C(=O)O)C(C)C; Sar = CNCC(=O)O

Test system: CD2F1 mice, P388/DHAQ leukemia ip, median survival T/C
Assay: NCI In Vivo Anticancer Drug Screen. Data for tumor model P388 Leukemia resistant to Dihydroxy Anthracenedione; NSC 299195 (intraperitoneal) in CD2F1 (CDF1) mice
Details: endpoint: median survival time, higher = longer survival
Protocol: The antitumor activity of compounds was measured in mice bearing transplantable tumors. Survival or tumor size were measured and the results are expressed as the measurement made in the treated group (T) divided by the measurement made in the vehicle treated control group (C). The tumor model used in this assay is P388 Leukemia resistant to Dihydroxy Anthracenedione; NSC 299195 (intraperitoneal) in CD2F1 (CDF1) mice

[1] = dose: 64.8 mg/kg/injection, schedule: Q04DX003 (ip), vehicle: saline
[2] = dose: 108.0 mg/kg/injection, schedule: Q04DX003 (ip), vehicle: saline
[3] = dose: 13.0 mg/kg/injection, schedule: Q04DX003 (ip), vehicle: saline
[4] = dose: 60.0 mg/kg/injection, schedule: Q04DX003 (ip), vehicle: saline
[5] = dose: 32.4 mg/kg/injection, schedule: Q04DX002 (ip), vehicle: saline
[6] = dose: 54.0 mg/kg/injection, schedule: Q04DX002 (ip), vehicle: saline

Measured: T/C

CCC1(O)CC2CN(CCc3c([nH]c4ccccc34)C(C(=O)OC)(c3cc4c(cc3OC)N(C)C3C(O)(C(N)=O)C(O)C5(CC)C=CCN6CCC43C65)C2)C1 (stereo not given) (tested in a mixture with another compound)
active: dose: 0.65 mg/kg/injection, schedule: Q04DX003 (ip), vehicle: clinical formulation 173 % of control | dose: 1.08 mg/kg/injection, schedule: Q04DX003 (ip), vehicle: clinical formulation 182 % of control | dose: 1.8 mg/kg/injection, schedule: Q04DX003 (ip), vehicle: clinical formulation 208 % of control
inactive: dose: 3.0 mg/kg/injection, schedule: Q04DX003 (ip), vehicle: clinical formulation 87 % of control

CC(CN1CC(=O)NC(=O)C1)N1CC(=O)NC(=O)C1 (stereo not given)
inactive: [1] 101 % of control | [2] 104 % of control | dose: 180.0 mg/kg/injection, schedule: Q04DX003 (ip), vehicle: saline 107 % of control | dose: 500.0 mg/kg/injection, schedule: Q04DX003 (ip), vehicle: saline 123 % of control

O=c1[nH]cc(F)c(=O)[nH]1
inactive: [3] 104 % of control | dose: 100.0 mg/kg/injection, schedule: Q04DX003 (ip), vehicle: saline 109 % of control
116 % of control and 226 % of control: [4]

Cc1c2oc3c(C)ccc(C(=O)N[C@@H]4C(=O)N[C@H](C(C)C)C(=O)N5CCC[C@H]5C(=O)N(C)CC(=O)N(C)[C@@H](C(C)C)C(=O)O[C@H]4C)c3nc-2c(C(=O)N[C@@H]2C(=O)N[C@H](C(C)C)C(=O)N3CCC[C@H]3C(=O)N(C)CC(=O)N(C)[C@@H](C(C)C)C(=O)O[C@H]2C)c(N)c1=O (I: [aThr][dV]P[Sar][NMeV] / II: [aThr][dV]P[Sar][NMeV]; ester I:1-I:C, II:1-II:C; linker I:N-II:N via Actinocin(9to1))
active: dose: 108.0 micrograms/kg/injection, schedule: Q04DX003 (ip), vehicle: saline + alcohol 152 % of control and 154 % of control | dose: 130.0 micrograms/kg/injection, schedule: Q04DX003 (ip), vehicle: saline + alcohol 152 % of control | dose: 180.0 micrograms/kg/injection, schedule: Q04DX003 (ip), vehicle: saline + alcohol 157 % of control and 176 % of control | dose: 216.0 micrograms/kg/injection, schedule: Q04DX003 (ip), vehicle: saline + alcohol 200 % of control | dose: 300.0 micrograms/kg/injection, schedule: Q04DX003 (ip), vehicle: saline + alcohol 192 % of control and 201 % of control | dose: 360.0 micrograms/kg/injection, schedule: Q04DX003 (ip), vehicle: saline + alcohol 206 % of control | dose: 500.0 micrograms/kg/injection, schedule: Q04DX003 (ip), vehicle: saline + alcohol 209 % of control | dose: 600.0 micrograms/kg/injection, schedule: Q04DX003 (ip), vehicle: saline + alcohol 227 % of control

O=P1(N(CCCl)CCCl)NCCCO1 (stereo not given)
active: [5] 189 % of control | dose: 38.9 mg/kg/injection, schedule: Q04DX003 (ip), vehicle: saline 224 % of control | dose: 43.2 mg/kg/injection, schedule: Q04DX002 (ip), vehicle: saline 203 % of control | [6] 255 % of control | [1] 353 % of control | dose: 72.0 mg/kg/injection, schedule: Q04DX002 (ip), vehicle: saline 201 % of control | dose: 90.0 mg/kg/injection, schedule: Q04DX002 (ip), vehicle: saline 336 % of control | [2] 463 % of control | dose: 120.0 mg/kg/injection, schedule: Q04DX002 (ip), vehicle: saline 223 % of control | dose: 150.0 mg/kg/injection, schedule: Q04DX002 (ip), vehicle: saline 200 % of control | dose: 200.0 mg/kg/injection, schedule: Q04DX002 (ip), vehicle: saline 380 % of control

N[C@@H](Cc1ccc(N(CCCl)CCCl)cc1)C(=O)O
inactive: dose: 1.94 mg/kg/injection, schedule: Q04DX002 (ip), vehicle: saline 114 % of control and 119 % of control and 120 % of control | dose: 1.94 mg/kg/injection, schedule: Q04DX003 (ip), vehicle: saline 106 % of control | dose: 3.24 mg/kg/injection, schedule: Q04DX002 (ip), vehicle: saline 117 % of control and 118 % of control | dose: 3.24 mg/kg/injection, schedule: Q04DX003 (ip), vehicle: saline 117 % of control | dose: 15.0 mg/kg/injection, schedule: Q04DX002 (ip), vehicle: saline 102 % of control and 118 % of control
active: dose: 9.0 mg/kg/injection, schedule: Q04DX002 (ip), vehicle: saline 157 % of control and 160 % of control and 163 % of control | dose: 9.0 mg/kg/injection, schedule: Q04DX003 (ip), vehicle: saline 157 % of control | dose: 15.0 mg/kg/injection, schedule: Q04DX003 (ip), vehicle: saline 152 % of control and 156 % of control

COc1cc(NS(C)(=O)=O)ccc1Nc1c2ccccc2nc2ccccc12
inactive: dose: 2.59 mg/kg/injection, schedule: Q04DX002 (ip), vehicle: other 108 % of control and 114 % of control (2×) | dose: 2.59 mg/kg/injection, schedule: Q04DX003 (ip), vehicle: saline 107 % of control | dose: 4.32 mg/kg/injection, schedule: Q04DX003 (ip), vehicle: saline 117 % of control

CC[C@]1(O)C[C@H]2CN(CCc3c([nH]c4ccccc34)[C@@](C(=O)OC)(c3cc4c(cc3OC)N(C=O)[C@H]3[C@@](O)(C(=O)OC)[C@H](OC(C)=O)[C@]5(CC)C=CCN6CC[C@]43[C@@H]65)C2)C1
active: dose: 0.43 mg/kg/injection, schedule: Q04DX003 (ip), vehicle: saline 160 % of control | dose: 0.72 mg/kg/injection, schedule: Q04DX003 (ip), vehicle: saline 150 % of control and 158 % of control and 169 % of control | dose: 1.2 mg/kg/injection, schedule: Q04DX003 (ip), vehicle: saline 161 % of control and 168 % of control and 172 % of control | dose: 2.0 mg/kg/injection, schedule: Q04DX003 (ip), vehicle: saline 168 % of control and 169 % of control and 195 % of control

O=C(Nc1ccc(C2=NCCN2)cc1)c1ccc(C(=O)Nc2ccc(C3=NCCN3)cc2)c(Cl)c1
inactive: dose: 16.2 mg/kg/injection, schedule: Q04DX003 (ip), vehicle: saline with Tween-80 94 % of control | dose: 27.0 mg/kg/injection, schedule: Q04DX003 (ip), vehicle: saline with Tween-80 98 % of control | dose: 45.0 mg/kg/injection, schedule: Q04DX003 (ip), vehicle: saline with Tween-80 97 % of control

O=NN(CCCl)C(=O)NCCCl
active: dose: 5.4 mg/kg/injection, schedule: Q04DX003 (ip), vehicle: saline + alcohol 193 % of control | dose: 6.48 mg/kg/injection, schedule: Q04DX002 (ip), vehicle: saline + alcohol 150 % of control | dose: 9.0 mg/kg/injection, schedule: Q04DX003 (ip), vehicle: saline + alcohol 319 % of control | dose: 10.8 mg/kg/injection, schedule: Q04DX002 (ip), vehicle: saline + alcohol 168 % of control and 205 % of control | dose: 15.0 mg/kg/injection, schedule: Q04DX003 (ip), vehicle: saline + alcohol 463 % of control | dose: 18.0 mg/kg/injection, schedule: Q04DX002 (ip), vehicle: saline + alcohol 317 % of control and 412 % of control | dose: 25.0 mg/kg/injection, schedule: Q04DX003 (ip), vehicle: saline + alcohol 463 % of control | dose: 30.0 mg/kg/injection, schedule: Q04DX002 (ip), vehicle: saline + alcohol 412 % of control and 420 % of control

COc1ccc(CCN(C)CCCC(C#N)(c2ccc(OC)c(OC)c2)C(C)C)cc1OC (stereo not given)
inactive: dose: 16.0 mg/kg/injection, schedule: Q03HX004 (ip), vehicle: saline 100 % of control | dose: 32.0 mg/kg/injection, schedule: Q03HX004 (ip), vehicle: saline 103 % of control

CC(=O)N(C)c1ccc(Nc2cc(C)[nH]c3ccc4ncnc4c23)cc1
inactive: dose: 19.4 mg/kg/injection, schedule: Q04DX002 (ip), vehicle: saline 98 % of control | dose: 20.7 mg/kg/injection, schedule: Q04DX002 (ip), vehicle: saline 98 % of control | [5] 94 % of control | dose: 34.6 mg/kg/injection, schedule: Q04DX002 (ip), vehicle: saline 91 % of control | [6] 116 % of control | dose: 57.6 mg/kg/injection, schedule: Q04DX002 (ip), vehicle: saline 94 % of control | dose: 96.0 mg/kg/injection, schedule: Q04DX002 (ip), vehicle: saline 108 % of control | dose: 160.0 mg/kg/injection, schedule: Q04DX002 (ip), vehicle: saline 98 % of control

O=C1c2ccccc2C(=O)c2c(NCCNCCO)ccc(NCCNCCO)c21
inactive: [3] 109 % of control | dose: 21.6 mg/kg/injection, schedule: Q04DX003 (ip), vehicle: saline 120 % of control | dose: 36.0 mg/kg/injection, schedule: Q04DX003 (ip), vehicle: saline 123 % of control | [4] 108 % of control
